Assay [1] relates to peripheral blood mononuclear cells (PBMC). As to the kind of experiment: scRNAseq classification of PBMC after intraperitoneal 2MT (Example 1). It counts as in vivo, C57/BL6 mice. The following applies: 200 μl of 1% 2MT solution i.p., blood 16 hr later. As to the method:
(§1) About 3-month-old C57/BL6 mice were intraperitoneally administered with 200 μl of saline (control) or 1% 2MT solution (dissolved in saline). Blood was collected 16 hr later, and peripheral blood mononuclear cells (PBMC) were separated using Ficoll Paque PREMIUM 1.084 (GE Healthcare). A single cell RNA cDNA library was prepared from the separated cells by using the 10× Chromium preparation system, Chromium Single Cell 3′ Library & Gel Bead Kit v3, and sequencing was performed using the illumina HiSeq. The obtained scRNAseq data was analyzed according to the method shown in Non-Patent Literatures 4 and 5. The results of clustering using the gene expression of each cell as an index were visualized by tSNE, and the results are shown in FIG. 1A-C.

Assay [2] shares this test system. The assay is described as follows: scRNAseq gene expression changes in PBMC cell clusters, control vs 2MT (Example 2). The following applies: 2MT i.p. vs control, 16 hr. It counts as in vivo, C57/BL6 mice. As to the method:
as §1, with “1A-C. […] Based on the data of scRNAseq performed in Example 1, the comparison results of the changes in the expression of each gene in the cells present in each cluster between the control conditions and the 2MT administration conditions are shown in FIG. 2. The genes whose expression changed by 2MT stimulation are shown on the top of the table, and the functional categories of the genes are shown above them. The numbers in the table indicate gene expression levels, and the density of shading indicates the degree of increase in gene expression.” for “1A-C.”

The subject of assay [3] is neutrophils in the peripheral blood. The assay is described as follows: flow cytometry of neutrophils in peripheral blood, 2MT i.p./odor, corticosterone (Example 3). It counts as in vivo, C57/BL6 mice. As to the method:
(§2) About 3-month-old C57/BL6 mice were intraperitoneally administered with 200 μl of saline (control) or 1% 2MT solution (dissolved in saline). Blood was collected 16 hr later, and the number of various leukocytes in the peripheral blood was measured by a flow cytometry method by peroxidase staining and a two-angle laser flow cytometry method. The ratios of neutrophils and monocytes in the peripheral blood under respective conditions that were clarified by the measurement are shown.

The subject of assay [4] is monocytes in the peripheral blood. The assay is described as follows: flow cytometry of monocytes in peripheral blood, 2MT i.p./odor, corticosterone (Example 3). It counts as in vivo, C57/BL6 mice. On the procedure:
as §2
(A flow cytometer gives signals particle by particle.)

A short description of assay [5]: blood stress hormone (Corticosterone) after 2MT stimulation. It counts as in vivo.
Assay [6] concerns neutrophils in the peripheral blood. As to the kind of experiment: number of neutrophils in peripheral blood, Siemens Advia 120 (Examples 4, 5). It counts as in vivo, C57/BL6 mice. The following applies: 200 μl of 1% solution i.p., blood 16 hr later, vs saline. On the procedure:
About 3-month-old C57/BL6 mice were intraperitoneally injected with 200 μl of saline (control) or 1% solution of respective compounds (dissolved in saline). Blood was collected 16 hr later, and the number of neutrophils in the peripheral blood was measured using Siemens Advia 120.

Assay [7] relates to monocytes in the peripheral blood. The assay is described as follows: number of monocytes in peripheral blood, Siemens Advia 120 (Examples 6, 7). Format: in vivo, C57/BL6 mice. The following applies: 200 μl of 1% solution i.p., blood 16 hr later, vs saline. As to the method:
About 3-month-old C57/BL6 mice were intraperitoneally injected with 200 μl of saline (control) or 1% solution of respective compounds (dissolved in saline). Blood was collected 16 hr later, and the number of monocytes in the peripheral blood was measured using Siemens Advia 120.
About 3-month-old C57/BL6 mice were intraperitoneally injected with 200 μl of saline (control) or 1% allyl isothiocyanate solution (dissolved in saline). Blood was collected 16 hr later, and the number of monocytes in the peripheral blood was measured using Siemens Advia 120.

Assay [8] relates to monocytes in the whole blood cells. As to the kind of experiment: ratio of monocytes in whole blood cells, Siemens Advia 120 (Examples 10, 11). Format: in vivo, C57/BL6 mice. The following applies: 200 μl of 1% solution i.p., blood 16 hr later, vs saline. As to the method:
About 3-month-old C57/BL6 mice were intraperitoneally injected with 200 μl of saline (control) or 1% solution of respective compounds (dissolved in saline). Blood was collected 16 hr later, and the ratio of monocytes in the whole blood cells was measured using Siemens Advia 120.
About 3-month-old C57/BL6 mice were intraperitoneally injected with 200 μl of saline (control) or 1% allyl isothiocyanate solution (dissolved in saline). Blood was collected 16 hr later, and the ratio of monocytes in the whole blood cells was measured using Siemens Advia 120.

Assay [9] has as its system neutrophils in the whole blood cells. As to the kind of experiment: ratio of neutrophils in whole blood cells, Siemens Advia 120 (Examples 12, 13). It counts as in vivo, C57/BL6 mice. The following applies: 200 μl of 1% solution i.p., blood 16 hr later, vs saline. As to the method: About 3-month-old C57/BL6 mice were intraperitoneally injected with 200 μl of saline (control) or 1% solution of respective compounds (dissolved in saline). Blood was collected 16 hr later, and the ratio of neutrophils in the whole blood cells was measured using Siemens Advia 120.

[10] abbreviates: intraperitoneal injection vs saline i.p., blood 16 hr later.

Consider `CC1=NCCS1` [2-Methyl-2-thiazoline], for which the “numbers of monocytes (Mono 1, Mono 2) and dendritic cells (DC)” value in assay [1] (vs saline) is on record as “drastically increases”. Besides, in assay [1] (control 0.83%), the “dendritic cells in PBMC” value stood at 2.2%. The “percentage of monocytes in PBMC” value in [1] (control 3.7%) is recorded as 23.7%. In [2], the “expression levels of Ccr1, Ccr2, Ccr12, and Cxc12 (genes that promote blood cell migration)” value is “increased”; the “expression levels of Lyz2, F13a1, Cd14, Chil3, and Hp (biological defense response)” value was “increased”; the “expression levels of Nfkbia, Nfkbiz, and Socs3 (suppressors of NF-κB and JAK-STAT pathways)” value is listed as “increased”. Besides, the number of neutrophils result in assay [3] (setting [10]) is reported as “increased”. In addition, the number of neutrophils entry in assay [3] (odor stimulation vs no odor) is “increased”. Besides, the number of monocytes entry in [4] (setting [10]) was “increased”. For the same molecule, the number of monocytes entry in assay [4] (odor stimulation vs no odor) was “increased”. For the same molecule, the “blood stress hormone (Corticosterone)” value in assay [5] is “increases”. In addition, in assay [6], the “neutrophils in the peripheral blood (number)” value is “increase”. Besides, the “number of monocytes in the peripheral blood” value in [7] was “increase”. The “ratio of monocytes in the whole blood cells” value in assay [8] is “increases”. Also, the “ratio of neutrophils in the whole blood cells” value in [9] is “increases”.

These data come from US20230149420A1, “ANTI-INFLAMMATORY IMMUNOENHANCER” (SCENT SCIENCE INTERNATIONAL INC., priority 2020, published 2023).
